Assays:
Type in all cases: cell-based
Settings in all cases: hPBMC Cell; 24 hours
IKZF2 = molecular target: T1, IKZF2 (Homo sapiens, UniProt Q96SW2+Q9UKS7); assay: Western blot degradation of IKZF2
T1 construct: expression of target proteins in cells; endogenous in cells
Experimental: (§1) Conventional Western blot assay was performed to evaluate the effects of the compounds of the present disclosure on the expression of target proteins in cells.
(§2) (1) Cell Seeding and Protein Harvesting: The selected cells were processed according to the cell seeding procedure and protein harvesting procedure in Table II-2.
(§3) (2) To the collected supernatant, 5×SDS sample loading buffer was added, followed by denaturation at 95 °C for 5 minutes. The denatured samples were then separated by SDS-PAGE electrophoresis on a polyacrylamide gel. Proteins were transferred to a nitrocellulose membrane (0.45 μm NC membrane), blocked with blocking buffer at room temperature for 1 hour, and subjected to antibody incubation and development procedures according to the antibody manufacturer's instructions (Cell Signaling Technology).
(§4) Half-Maximal Degradation Concentration value (the drug concentration required for degrading proteins by 50%, abbreviated as DC50) reads method: comparing the grayscale values of Western blot bands from drug-treated samples with those from blank DMSO-treated controls, and identifying the drug concentration range at which the grayscale value is half that of the DMSO-treated control bands.
(§5) DC50 values can be calculated using ImageJ software to measure grayscale values of Western blot bands from drug-treated samples. The concentration-response curve is fitted to estimate the drug concentration corresponding to half the grayscale value.
(§6) Target protein remaining (%) refers to the percentage of target protein remaining in cells after treatment with protein degrader compounds.
(§7) Calculation method for target protein remaining (%): Use ImageJ software to measure grayscale values of Western blot bands from drug (protein degrader)-treated samples. The grayscale value of drug-treated bands is divided by that of internal control protein bands, and the resulting quotient is normalized to obtain the relative percentage of remaining target protein after protein degrader treatment.
(§8) Target protein degradation rate (%)=1−target protein remaining (%).

WEE1 = molecular target: T2, WEE1 (Homo sapiens, UniProt P30291+Q96SW2); assay: Western blot degradation of WEE1
T2 construct: expression of target proteins in cells; endogenous in cells
T2 sequence (P30291 whole entry): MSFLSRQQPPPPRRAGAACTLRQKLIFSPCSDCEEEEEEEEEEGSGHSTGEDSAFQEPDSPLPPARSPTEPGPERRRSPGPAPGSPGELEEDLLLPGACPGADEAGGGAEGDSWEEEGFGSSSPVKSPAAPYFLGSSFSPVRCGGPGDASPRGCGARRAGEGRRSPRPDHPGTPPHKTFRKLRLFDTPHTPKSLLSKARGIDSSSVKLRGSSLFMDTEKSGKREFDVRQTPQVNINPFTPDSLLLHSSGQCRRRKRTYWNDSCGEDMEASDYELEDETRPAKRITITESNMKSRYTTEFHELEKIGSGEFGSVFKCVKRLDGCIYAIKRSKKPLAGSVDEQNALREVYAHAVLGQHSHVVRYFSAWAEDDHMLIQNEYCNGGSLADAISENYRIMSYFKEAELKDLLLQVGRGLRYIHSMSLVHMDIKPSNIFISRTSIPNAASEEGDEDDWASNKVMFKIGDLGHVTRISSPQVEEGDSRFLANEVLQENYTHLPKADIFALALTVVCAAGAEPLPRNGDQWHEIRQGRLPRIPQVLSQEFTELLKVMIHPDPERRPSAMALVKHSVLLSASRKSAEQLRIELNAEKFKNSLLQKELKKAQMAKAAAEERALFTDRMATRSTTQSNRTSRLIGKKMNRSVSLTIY
T2 sequence (Q96SW2 whole entry): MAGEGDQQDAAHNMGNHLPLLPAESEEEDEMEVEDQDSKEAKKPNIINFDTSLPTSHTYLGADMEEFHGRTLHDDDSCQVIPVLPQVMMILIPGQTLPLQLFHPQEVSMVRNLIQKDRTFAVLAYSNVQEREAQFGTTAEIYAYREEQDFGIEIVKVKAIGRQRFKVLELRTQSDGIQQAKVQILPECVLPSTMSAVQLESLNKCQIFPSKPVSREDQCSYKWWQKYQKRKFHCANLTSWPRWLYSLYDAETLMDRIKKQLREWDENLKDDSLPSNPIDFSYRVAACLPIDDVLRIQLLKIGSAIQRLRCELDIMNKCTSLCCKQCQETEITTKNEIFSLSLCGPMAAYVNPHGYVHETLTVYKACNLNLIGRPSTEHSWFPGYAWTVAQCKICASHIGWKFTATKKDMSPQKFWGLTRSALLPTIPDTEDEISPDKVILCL
T2 sequence (Q16531 whole entry partner): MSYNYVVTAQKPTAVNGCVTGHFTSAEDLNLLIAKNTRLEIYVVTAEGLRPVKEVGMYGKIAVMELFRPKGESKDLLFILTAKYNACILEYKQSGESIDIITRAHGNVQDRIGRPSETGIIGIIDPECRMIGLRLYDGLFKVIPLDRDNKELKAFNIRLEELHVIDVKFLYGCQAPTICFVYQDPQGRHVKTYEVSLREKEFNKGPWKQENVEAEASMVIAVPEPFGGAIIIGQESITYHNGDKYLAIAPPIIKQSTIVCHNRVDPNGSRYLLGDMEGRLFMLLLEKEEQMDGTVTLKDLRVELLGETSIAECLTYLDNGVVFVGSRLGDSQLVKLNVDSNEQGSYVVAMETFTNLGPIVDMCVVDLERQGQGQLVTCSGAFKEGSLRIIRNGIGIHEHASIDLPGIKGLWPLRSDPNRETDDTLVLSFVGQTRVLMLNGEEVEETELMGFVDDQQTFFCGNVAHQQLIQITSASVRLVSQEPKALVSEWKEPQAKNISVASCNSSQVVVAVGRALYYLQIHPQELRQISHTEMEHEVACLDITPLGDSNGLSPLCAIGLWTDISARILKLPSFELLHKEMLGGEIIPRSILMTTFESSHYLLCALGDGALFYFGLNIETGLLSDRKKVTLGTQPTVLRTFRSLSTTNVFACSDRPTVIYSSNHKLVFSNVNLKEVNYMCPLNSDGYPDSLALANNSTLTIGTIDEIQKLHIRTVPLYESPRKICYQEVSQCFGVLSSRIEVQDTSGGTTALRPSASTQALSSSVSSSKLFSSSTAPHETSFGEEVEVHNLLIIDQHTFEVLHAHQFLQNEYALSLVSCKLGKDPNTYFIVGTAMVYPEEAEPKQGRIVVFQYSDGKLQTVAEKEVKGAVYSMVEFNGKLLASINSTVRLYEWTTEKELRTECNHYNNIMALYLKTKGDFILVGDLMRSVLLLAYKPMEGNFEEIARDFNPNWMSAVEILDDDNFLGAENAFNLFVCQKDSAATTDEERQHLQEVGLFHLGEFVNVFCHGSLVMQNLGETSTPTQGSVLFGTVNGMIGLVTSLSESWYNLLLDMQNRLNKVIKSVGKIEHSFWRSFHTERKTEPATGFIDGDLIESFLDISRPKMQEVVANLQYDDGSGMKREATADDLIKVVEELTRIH
Experimental: as §1, §2, §3, §4, §5, §6, §7, §8

GSPT1 = molecular target: T3, GSPT1 (Homo sapiens, UniProt P15170+Q96SW2); assay: Western blot degradation of GSPT1
T3 construct: expression of target proteins in cells; endogenous in cells
T3 sequence (P15170 whole entry): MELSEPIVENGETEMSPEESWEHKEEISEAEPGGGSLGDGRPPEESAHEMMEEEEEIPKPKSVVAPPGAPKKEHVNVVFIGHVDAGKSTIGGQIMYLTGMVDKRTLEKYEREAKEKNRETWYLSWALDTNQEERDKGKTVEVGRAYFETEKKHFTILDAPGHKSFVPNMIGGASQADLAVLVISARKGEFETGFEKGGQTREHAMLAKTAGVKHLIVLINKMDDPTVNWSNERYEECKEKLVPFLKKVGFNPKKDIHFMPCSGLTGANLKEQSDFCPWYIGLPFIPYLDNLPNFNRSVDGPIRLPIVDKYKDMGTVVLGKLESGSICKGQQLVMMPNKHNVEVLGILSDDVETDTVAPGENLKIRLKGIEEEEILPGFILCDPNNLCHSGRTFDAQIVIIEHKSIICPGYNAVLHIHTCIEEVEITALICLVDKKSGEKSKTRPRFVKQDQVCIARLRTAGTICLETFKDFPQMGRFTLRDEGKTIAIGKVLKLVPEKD
T3 sequence (Q96SW2 whole entry): as the sequence (Q96SW2 whole entry) above
T3 sequence (Q16531 whole entry partner): as the sequence (Q16531 whole entry partner) above
Experimental: as §1, §2, §3, §4, §5, §6, §7, §8

IKZF3 = molecular target: T4, IKZF3 (Homo sapiens, UniProt Q96SW2+Q9UKT9); assay: Western blot degradation of IKZF3
T4 construct: expression of target proteins in cells; endogenous in cells
T4 sequence (Q9UKT9 whole entry): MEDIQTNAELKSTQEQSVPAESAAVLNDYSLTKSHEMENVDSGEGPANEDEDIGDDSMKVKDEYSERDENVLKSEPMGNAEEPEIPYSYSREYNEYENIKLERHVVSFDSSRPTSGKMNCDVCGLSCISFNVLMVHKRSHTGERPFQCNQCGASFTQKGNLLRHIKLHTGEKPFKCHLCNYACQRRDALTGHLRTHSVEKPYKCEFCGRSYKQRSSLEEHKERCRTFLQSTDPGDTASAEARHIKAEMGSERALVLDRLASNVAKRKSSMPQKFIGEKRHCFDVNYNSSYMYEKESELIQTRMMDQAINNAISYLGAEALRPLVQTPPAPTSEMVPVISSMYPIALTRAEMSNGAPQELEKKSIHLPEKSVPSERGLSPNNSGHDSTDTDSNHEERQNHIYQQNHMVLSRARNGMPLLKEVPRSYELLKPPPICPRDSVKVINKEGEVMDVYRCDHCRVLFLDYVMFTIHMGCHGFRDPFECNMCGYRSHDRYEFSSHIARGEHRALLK
T4 sequence (Q96SW2 whole entry): as the sequence (Q96SW2 whole entry) above
T4 sequence (Q16531 whole entry partner): as the sequence (Q16531 whole entry partner) above
Experimental: as §1, §2, §3, §4, §5, §6, §7, §8

CK1α = molecular target: T5, CK1α (Homo sapiens, UniProt P48729+Q96SW2); assay: Western blot degradation of CK1α
T5 construct: expression of target proteins in cells; endogenous in cells
T5 sequence (P48729 whole entry): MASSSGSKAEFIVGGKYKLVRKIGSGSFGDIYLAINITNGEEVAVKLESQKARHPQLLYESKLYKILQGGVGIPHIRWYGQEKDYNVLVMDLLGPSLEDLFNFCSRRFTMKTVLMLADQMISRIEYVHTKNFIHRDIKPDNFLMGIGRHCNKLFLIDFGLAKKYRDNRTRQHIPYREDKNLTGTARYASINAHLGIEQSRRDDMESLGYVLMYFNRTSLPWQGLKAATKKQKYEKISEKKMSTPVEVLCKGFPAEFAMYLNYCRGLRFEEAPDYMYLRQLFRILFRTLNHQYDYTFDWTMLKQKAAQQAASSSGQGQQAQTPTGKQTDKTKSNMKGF
T5 sequence (Q96SW2 whole entry): as the sequence (Q96SW2 whole entry) above
T5 sequence (Q16531 whole entry partner): as the sequence (Q16531 whole entry partner) above
Experimental: as §1, §2, §3, §4, §5, §6, §7, §8

IKZF1 = molecular target: T6, IKZF1 (Homo sapiens, UniProt Q13422+Q96SW2); assay: Western blot degradation of IKZF1
T6 construct: expression of target proteins in cells; endogenous in cells
Experimental: as §1, §2, §3, §4, §5, §6, §7, §8

T1 sequence (Q9UKS7 whole entry): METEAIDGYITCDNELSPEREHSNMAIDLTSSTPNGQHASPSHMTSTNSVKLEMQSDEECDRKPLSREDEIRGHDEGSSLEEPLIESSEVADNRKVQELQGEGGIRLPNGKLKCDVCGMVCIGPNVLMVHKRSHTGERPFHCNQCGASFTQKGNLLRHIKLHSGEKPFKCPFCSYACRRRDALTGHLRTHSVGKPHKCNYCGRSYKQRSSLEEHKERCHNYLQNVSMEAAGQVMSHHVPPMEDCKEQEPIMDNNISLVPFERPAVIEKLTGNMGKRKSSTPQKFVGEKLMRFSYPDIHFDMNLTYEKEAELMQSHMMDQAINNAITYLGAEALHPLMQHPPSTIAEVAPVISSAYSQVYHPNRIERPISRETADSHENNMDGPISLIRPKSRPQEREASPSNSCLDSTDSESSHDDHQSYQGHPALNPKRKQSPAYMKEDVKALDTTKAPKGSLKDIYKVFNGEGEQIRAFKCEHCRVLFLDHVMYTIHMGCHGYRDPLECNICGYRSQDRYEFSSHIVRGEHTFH
T1 sequence (Q96SW2 whole entry): as the sequence (Q96SW2 whole entry) above
T1 sequence (Q16531 whole entry partner): as the sequence (Q16531 whole entry partner) above

Compound	Degradation of substrate protein IKZF2 (substrate protein remaining %) (IKZF2)	Degradation of substrate protein WEE1 (substrate protein remaining %) (WEE1)	Degradation of substrate protein GSPT1 (substrate protein remaining %) (GSPT1)	Degradation of substrate protein IKZF3 (substrate protein remaining %) (IKZF3)	Degradation of substrate protein CK1α (substrate protein remaining %) (CK1α)	Degradation of substrate protein IKZF1 (substrate protein remaining %) (IKZF1)
O=C1CCN(N2Cc3cc(CO)ccc3C2=O)C(=O)N1 [GT-05567, 1-(5-(hydroxymethyl)-1-oxoisoindolin-2-yl)dihydropyrimidine-2,4(1H, 3H)-dione]	B (80%<substrate protein remaining %≤100%)	A (0%≤substrate protein remaining %≤80%)	A (0%≤substrate protein remaining %≤80%)	A (0%≤substrate protein remaining %≤80%)	A (0%≤substrate protein remaining %≤80%)	A (0%≤substrate protein remaining %≤80%)
O=C1CCN(N2Cc3c(O)cccc3C2=O)C(=O)N1 [GT-05570, 1-(4-hydroxy-1-oxoisoindolin-2-yl)dihydropyrimidine-2,4(1H, 3H)-dione]	A (0%≤substrate protein remaining %≤80%)	A (0%≤substrate protein remaining %≤80%)	A (0%≤substrate protein remaining %≤80%)	A (0%≤substrate protein remaining %≤80%)	A (0%≤substrate protein remaining %≤80%)	A (0%≤substrate protein remaining %≤80%)
O=C1CCN(N2C(=O)c3ccc(F)cc3C2=O)C(=O)N1 [GT-05575, 2-(2,4-dioxotetrahydropyrimidin-1(2H)-yl)-5-fluoroisoindoline-1,3-dione]	A (0%≤substrate protein remaining %≤80%)	A (0%≤substrate protein remaining %≤80%)	A (0%≤substrate protein remaining %≤80%)	A (0%≤substrate protein remaining %≤80%)	A (0%≤substrate protein remaining %≤80%)	B (80%<substrate protein remaining %≤100%)
O=C1CCN(N2C(=O)c3cccc(F)c3C2=O)C(=O)N1 [GT-05576, 2-(2,4-dioxotetrahydropyrimidin-1(2H)-yl)-4-fluoroisoindoline-1,3-dione]	A (0%≤substrate protein remaining %≤80%)	A (0%≤substrate protein remaining %≤80%)	A (0%≤substrate protein remaining %≤80%)	A (0%≤substrate protein remaining %≤80%)	A (0%≤substrate protein remaining %≤80%)	B (80%<substrate protein remaining %≤100%)
O=CC1CCN(c2ccc3c(c2)C(=O)N(N2CCC(=O)NC2=O)C3=O)CC1 [GT-05580, 1-(2-(2,4-dioxotetrahydropyrimidin-1(2H)-yl)-1,3-dioxoisoindolin-5-yl)piperidine-4-carbaldehyde]	A (0%≤substrate protein remaining %≤80%)	A (0%≤substrate protein remaining %≤80%)	A (0%≤substrate protein remaining %≤80%)	A (0%≤substrate protein remaining %≤80%)	A (0%≤substrate protein remaining %≤80%)	B (80%<substrate protein remaining %≤100%)
O=C1CCN(N2C(=O)c3ccc(N4CCNCC4)cc3C2=O)C(=O)N1 [GT-05581, 2-(2,4-dioxotetrahydropyrimidin-1(2H)-yl)-5-(piperazin-1-yl)isoindoline-1,3-dione]	B (80%<substrate protein remaining %≤100%)	A (0%≤substrate protein remaining %≤80%)	A (0%≤substrate protein remaining %≤80%)	A (0%≤substrate protein remaining %≤80%)	A (0%≤substrate protein remaining %≤80%)	B (80%<substrate protein remaining %≤100%)
O=C1CCN(N2C(=O)c3ccc(N4C[C@@H]5C[C@H]4CN5)cc3C2=O)C(=O)N1 [GT-05582, 5-((1S, 4S)-2,5-diazabicyclo[2.2.1]heptan-2-yl)-2-(2,4-dioxotetrahydropyrimidin-1(2H)-yl)isoindoline-1,3-dione]	A (0%≤substrate protein remaining %≤80%)	A (0%≤substrate protein remaining %≤80%)	A (0%≤substrate protein remaining %≤80%)	A (0%≤substrate protein remaining %≤80%)	A (0%≤substrate protein remaining %≤80%)	B (80%<substrate protein remaining %≤100%)
O=C1CCN(N2C(=O)c3ccc(N4C5CNCC4C5)cc3C2=O)C(=O)N1 [GT-05588, 5-(3,6-diazabicyclo[3.1.1]heptan-6-yl)-2-(2,4-dioxotetrahydropyrimidin-1(2H)-yl)isoindoline-1,3-dione]	B (80%<substrate protein remaining %≤100%)	B (80%<substrate protein remaining %≤100%)	B (80%<substrate protein remaining %≤100%)	A (0%≤substrate protein remaining %≤80%)	B (80%<substrate protein remaining %≤100%)	B (80%<substrate protein remaining %≤100%)
O=C1CCN(N2C(=O)c3ccc(N4CC5CCC(C4)N5)cc3C2=O)C(=O)N1 [GT-05589, 5-(3,8-diazabicyclo[3.2.1]octan-3-yl)-2-(2,4-dioxotetrahydropyrimidin-1(2H)-yl)isoindoline-1,3-dione]	B (80%<substrate protein remaining %≤100%)	B (80%<substrate protein remaining %≤100%)	B (80%<substrate protein remaining %≤100%)	A (0%≤substrate protein remaining %≤80%)	B (80%<substrate protein remaining %≤100%)	B (80%<substrate protein remaining %≤100%)
O=CC1CCN(c2cccc3c2C(=O)N(N2CCC(=O)NC2=O)C3=O)CC1 [GT-05590, 1-(2-(2,4-dioxotetrahydropyrimidin-1(2H)-yl)-1,3-dioxoisoindolin-4-yl)piperidine-4-carbaldehyde]	B (80%<substrate protein remaining %≤100%)	B (80%<substrate protein remaining %≤100%)	B (80%<substrate protein remaining %≤100%)	A (0%≤substrate protein remaining %≤80%)	B (80%<substrate protein remaining %≤100%)	B (80%<substrate protein remaining %≤100%)
O=C1CCN(N2C(=O)c3cccc(N4CCNCC4)c3C2=O)C(=O)N1 [GT-05591, 2-(2,4-dioxotetrahydropyrimidin-1(2H)-yl)-4-(piperazin-1-yl)isoindoline-1,3-dione]	B (80%<substrate protein remaining %≤100%)	B (80%<substrate protein remaining %≤100%)	B (80%<substrate protein remaining %≤100%)	A (0%≤substrate protein remaining %≤80%)	B (80%<substrate protein remaining %≤100%)	B (80%<substrate protein remaining %≤100%)

From patent US20260364184A1, “COMPOUND BASED ON OXOISOINDOLINYL-SUBSTITUTED TETRAHYDROPYRIMIDINE-DIONE AND USE THEREOF” (GLUETACS THERAPEUTICS (SHANGHAI) CO., LTD., priority 2023, published 2026)
